Laboratory results from patent publication US11013698B2, “Combinations of LSD1 inhibitors for the treatment of hematological malignancies” (Oryzon Genomics S.A., priority 2016, dated 2021).
Read-outs that look alike come from different tables or passages of the source.

Experiments:
Test in all cases: Viability assay (96 hours), Alamar Blue
Type in all cases: cell-based
MOLM-13 = settings: for EC50: Homo sapiens, read-out: EC50 (viability); for Reduction of viability (compared to vehicle controls): serial 1:3 dilution
Experimental: (§1) AML cell lines were maintained in RPMI 10% FBS medium at 37° C. in a humidified incubator with controlled 5% CO2 atmosphere. Cell freezing and thawing was performed following recommendation from ATCC. Genetic profiling of the cell lines used is available in table 2. Cells were seeded at the optimal density (to guarantee linear growth during the treatment), as previously determined (4000 cells/well, except 16000 cells/well in the case of KASUMI-1 cells), in 96-well plates with 50 μL of medium. Three wells were reserved for each experimental condition; medium-only and vehicle-treated controls were also added for background correction and normalization respectively. […] Alamar Blue® is a cell viability indicator that uses the natural reducing power of living cells to convert resazurin to the fluorescent molecule, resorufin^43.

MV(4;11) = settings: for EC50: Homo sapiens, read-out: EC50 (viability); for Reduction of viability (compared to vehicle controls): serial 1:3 dilution
Experimental: as §1

KASUMI-1 = settings: for EC50: Homo sapiens, read-out: EC50 (viability); for Reduction of viability (compared to vehicle controls): serial 1:3 dilution
Experimental: as §1

OCI-AML2 = settings: for EC50: Homo sapiens, read-out: EC50 (viability); for Reduction of viability (compared to vehicle controls): serial 1:3 dilution
Experimental: as §1

HL-60 = settings: for Reduction of viability (compared to vehicle controls): serial 1:3 dilution; for EC50: Homo sapiens, read-out: EC50 (viability)
Experimental: as §1

THP-1 = settings: for EC50: Homo sapiens, read-out: EC50 (viability); for Reduction of viability (compared to vehicle controls): serial 1:3 dilution
Experimental: as §1

OCI-AML3 = settings: for EC50: Homo sapiens, read-out: EC50 (viability); for Reduction of viability (compared to vehicle controls): serial 1:3 dilution
Experimental: as §1

[1] = MOLM-13, 96 hours, single agent
[2] = MV4-11, MV(4;11), 96 hours, single agent
[3] = KASUMI-1, 96 hours, single agent
[4] = OCI-AML2, 96 hours, single agent
[5] = OCI-AML-3, OCI-AML3, 96 hours, single agent

| EC50 (MOLM-13; [1]) [nM] | EC50 (OCI-AML2; [4]) [nM] | EC50 (HL-60; HL-60, 96 hours, single agent) [nM] | EC50 (THP-1; THP-1, 96 hours, single agent) [nM] | EC50 (OCI-AML3; [5]) [nM] | Compound | Reduction of viability (compared to vehicle controls) (MOLM-13; MOLM-13, 96 hours) | EC50 (MV(4;11); [2]) [nM] | Reduction of viability (compared to vehicle controls) (MV(4;11); MV(4;11), 96 hours) | Reduction of viability (compared to vehicle controls) (KASUMI-1; KASUMI-1, 96 hours) | Reduction of viability (compared to vehicle controls) (OCI-AML2; OCI-AML2, 96 hours) | Reduction of viability (compared to vehicle controls) (HL-60; HL-60, 96 hours) | Reduction of viability (compared to vehicle controls) (THP-1; THP-1, 96 hours) | Reduction of viability (compared to vehicle controls) (OCI-AML3; OCI-AML3, 96 hours) | EC50 (KASUMI-1; [3]) [nM] | other results |
| --- | --- | --- | --- | --- | --- | --- | --- | --- | --- | --- | --- | --- | --- | --- | --- |
| 108 |  |  |  |  | CC(C)N(CCCNC(=O)Nc1ccc(C(C)(C)C)cc1)C[C@H]1O[C@@H](n2ccc3c(N)ncnc32)[C@H](O)[C@@H]1O [EPZ004777, 7-[5-Deoxy-5-[[3-[[[[4-(1,1-dimethylethyl)phenyl]amino]carbonyl]amino]propyl](1-methylethyl)amino]-β-D-ribofuranosyl]-7H-pyrrolo[2,3-d]pyrimidin-4-amine] | greater than 20% | 118 | greater than 20% |  |  |  |  |  |  |  |
|  |  |  |  |  | Nc1ncn([C@H]2C[C@H](O)[C@@H](CO)O2)c(=O)n1 [Decitabine, 5-aza-2′-deoxycytidine] | greater than 20% |  | greater than 20% | greater than 20% | greater than 20% | greater than 20% | greater than 20% | greater than 20% |  | EC50 (MOLM-13; MOLM-13, 96 h): 12.6 nM; EC50 (MV(4;11); MV4-11, 96 h): 79.5 nM; EC50 (KASUMI-1; Kasumi 1, 96 h): 24 nM; EC50 (OCI-AML2; OCI-AML2, 96 h): 36 nM; EC50 (HL-60; HL-60, 96 h): 42.1 nM; EC50 (THP-1; THP-1, 96 h): 95 nM; EC50 (OCI-AML3; OCI-AML-3, 96 h): 100 nM |
| 25 | 14 | 113 |  |  | CN(C)CC[C@H](CSc1ccccc1)Nc1ccc(S(=O)(=O)NC(=O)c2ccc(N3CCN(Cc4ccccc4-c4ccc(Cl)cc4)CC3)cc2)cc1[N+](=O)[O-] [ABT737, 4-[4-[[2-(4-chlorophenyl)phenyl]methyl]piperazin-1-yl]-N-[4-[[(2R)-4-(dimethylamino)-1-phenylsulfanylbutan-2-yl]amino]-3-nitrophenyl]sulfonylbenzamide] | greater than 20% | 6.3 | greater than 20% | greater than 20% | greater than 20% | greater than 20% |  |  | 124 |  |
| < 1 | 830 |  |  |  | CC(C)(C)c1cc(NC(=O)Nc2ccc(-c3cn4c(n3)sc3cc(OCCN5CCOCC5)ccc34)cc2)no1 [Quizartinib] | greater than 20% | < 1 | greater than 20% |  | greater than 20% |  |  |  |  |  |
|  |  |  |  |  | O=C(CCCCCCNC(=O)c1cnc(N(c2ccccc2)c2ccccc2)nc1)NO [Rocilinostat, Ricolinostat] | greater than 20% |  | greater than 20% | greater than 20% | greater than 20% | greater than 20% | greater than 20% | greater than 20% |  |  |
| 52 | 106 | 42 | 230 | 55.2 | Nc1ccccc1NC(=O)c1ccc(CNC(=O)OCc2cccnc2)cc1 [Entinostat] | greater than 20% | 98.5 | greater than 20% | greater than 20% | greater than 20% | greater than 20% | greater than 20% | greater than 20% | 168 |  |
| 78.5 | 26.5 | 43.5 | 252 | 145 | Nc1ccn([C@@H]2O[C@H](CO)[C@@H](O)[C@@H]2O)c(=O)n1 [ARA-C, arabinofuranosyl cytidine] | greater than 20% | 198 | greater than 20% | greater than 20% | greater than 20% | greater than 20% | greater than 20% | greater than 20% | 28.7 |  |
| 44.7 |  |  |  |  | CC(C)N(C[C@H]1O[C@@H](n2cnc3c(N)ncnc32)[C@H](O)[C@@H]1O)[C@H]1C[C@@H](CCc2nc3cc(C(C)(C)C)ccc3[nH]2)C1 [EPZ5676, Pinometostat] | greater than 20% | 16 | greater than 20% |  |  |  |  |  |  |  |
| 323 | 1850 | 1810 | 2880 | 889 | Nc1ncn([C@@H]2O[C@H](CO)[C@@H](O)[C@H]2O)c(=O)n1 [Azacitidine] | greater than 20% | 1110 | greater than 20% | greater than 20% | greater than 20% | greater than 20% | greater than 20% | greater than 20% | 2280 |  |
|  |  |  |  |  | O=C(CCCCCCC(=O)Nc1ccccc1)NO [SAHA, suberanilohydroxamic acid] | greater than 20% |  | greater than 20% | greater than 20% | greater than 20% | greater than 20% | greater than 20% | greater than 20% |  |  |
| 4.8 | 5.9 | 2.7 | 1.7 | 0.8 | CC1=C(/C=C/C(C)=C/C=C/C(C)=C/C(=O)O)C(C)(C)CCC1 [ATRA, all-trans retinoic acid] | greater than 20% | 2.8 | greater than 20% |  | greater than 20% | greater than 20% | greater than 20% | greater than 20% |  |  |
| 128 | 446 |  | 324 | 659 | COc1ccc(C2=N[C@@H](c3ccc(Cl)cc3)[C@@H](c3ccc(Cl)cc3)N2C(=O)N2CCNC(=O)C2)c(OC(C)C)c1 [Nutlin3A, 4-[[(4S,5R)-4,5-bis(4-chlorophenyl)-4,5-dihydro-2-[4-methoxy-2-(1-methylethoxy)phenyl]-1H-imidazol-1-yl]carbonyl]-2-piperazinone] | greater than 20% |  |  |  | greater than 20% |  | greater than 20% | greater than 20% |  |  |
